Data as given in US20070015833A1 (priority 2005, published 2007).

Test: small volume in vitro release in 50 ml 0.1N HCl
Assay type: physicochemical
Details: 37° C., 150 rpm
Procedure: The formulations were tested for their small volume in vitro release characteristics in 50 ml 0.1N HCl at 37° C. and 150 rpm using the following procedure: III. Instrumentation (or Equivalent) a. Automated Dissolution System comprising of: Hanson SR8 Plus Test Station Hanson Auto Plus Maximiser System Controller Hanson Auto Plus MultiFill Fraction Collector b. HPLC System comprising of: pump—Merck Hitachi L-7100 autoinjector—Merck Hitachi L-7200 column oven—Merck Hitachi L-7300 detector—Merck Hitachi L-7400 interface and integration software—Merck Hitachi D-7000
0.1N HCl Preparation Dilute 8.5 ml HCl 37% to 1 liter with purified water. Procedure Place one weighed capsule in each vessel containing 0.1N HCl and immediately operate the apparatus for 30 min. Unless otherwise specified, 3 ml samples are withdrawn from each vessel and immediately filtered through PTFE membranes at 15 and 30 min.
The small volume was chosen as a model of the conditions in a fasted stomach.

dissolution (in words): no dissolution at all
% dissolved 15 min (15 min): 0%
% dissolved 30 min (30 min): 0%
SMILES: CC(C)OC(=O)C(C)(C)Oc1ccc(C(=O)c2ccc(Cl)cc2)cc1 [Micronized Fenofibrate]
